Laboratory results taken from PMC6812366 (ACS Omega, 2019).

Tests used:
[1] = biological target: T1, hDcpS (human decapping scavenger enzyme) (Homo sapiens, UniProt Q96C86); experiment: HPLC decapping assay with recombinant enzyme, hydrolysis rate V0 at […] substrate; format: biochemical
[2] = biological target: T2, CeDcpS (C. elegans decapping scavenger enzyme) (Caenorhabditis elegans, UniProt G5EFS4); experiment: as above; format: biochemical
T2 sequence (G5EFS4 1-311): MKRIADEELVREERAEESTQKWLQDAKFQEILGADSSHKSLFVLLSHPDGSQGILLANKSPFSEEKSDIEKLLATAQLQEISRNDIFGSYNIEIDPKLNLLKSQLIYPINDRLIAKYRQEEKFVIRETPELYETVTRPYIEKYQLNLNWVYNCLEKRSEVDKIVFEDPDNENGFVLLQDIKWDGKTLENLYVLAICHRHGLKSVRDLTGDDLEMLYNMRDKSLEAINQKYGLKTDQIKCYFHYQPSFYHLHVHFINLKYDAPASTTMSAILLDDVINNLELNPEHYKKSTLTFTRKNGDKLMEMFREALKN

[3] = biological target: T2, CeDcpS (C. elegans decapping scavenger enzyme); experiment: intrinsic Trp fluorescence quenching titration, association constant Kas; format: binding
[4] = biological target: T1, hDcpS (human decapping scavenger enzyme); experiment: as above; format: binding

T1 sequence (Q96C86 2-337): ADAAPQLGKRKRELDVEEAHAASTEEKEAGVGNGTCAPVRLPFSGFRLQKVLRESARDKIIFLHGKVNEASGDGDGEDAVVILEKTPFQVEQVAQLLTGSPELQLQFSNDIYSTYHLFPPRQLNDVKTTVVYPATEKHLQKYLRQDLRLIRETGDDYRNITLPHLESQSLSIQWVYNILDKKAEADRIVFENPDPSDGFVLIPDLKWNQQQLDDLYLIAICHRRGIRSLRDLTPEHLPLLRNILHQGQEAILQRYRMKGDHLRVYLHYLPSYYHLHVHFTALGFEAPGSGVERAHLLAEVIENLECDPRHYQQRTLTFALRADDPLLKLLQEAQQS

Row | hDcpS [1] | CeDcpS [2] | Kd [3] | Kd [4] | Compound
1 | 4.33 ± 0.23 µM/min | 1.83 ± 0.21 µM/min | – | – | C[n+]1cn([C@@H]2O[C@H](COP(=O)(O)OP(=O)(O)OP(=O)(O)OC[C@H]3O[C@@H](n4cnc5c(=O)[nH]c(N)nc54)[C@H](O)[C@@H]3O)[C@@H](O)[C@H]2O)c2nc(N)[nH]c(=O)c21 [m7GpppG, P1-(7-methylguanosin-5′-yl)-P3-guanosin-5′-yl triphosphate]
2 | – | – | 136 nM | 286 nM | CNc1nc2c(c(=O)[nH]1)[n+](C)cn2[C@@H]1O[C@H](COP(=O)(O)O)[C@@H](O)[C@H]1O [m2m7GMP]
